Nine molecules from US20080255155A1, “KINASE INHIBITORS AND USES THEREOF” (priority 2006, published 2008) can be followed below.

Assay [1] deals with T1, recombinant human c-Met/HGF receptor (Homo sapiens, UniProt P08581).
T1 construct: His tag; made in house; host or cells: Hi-5 cells (Trichoplusia ni), recombinant baculovirus
Description: In vitro receptor tyrosine kinase assay, c-Met (DELFIA). Format: biochemical. To be noted: ATP 10 uM, enzyme 25 nM; read-out: Potency in enzyme assays Cmet. The source says:
(§1) These tests measure the ability of compounds to inhibit the enzymatic activity of recombinant human c-Met/HGF receptor and VEGF receptor enzymatic activity.
A 1.3-kb cDNA corresponding to the intracellular domain of c-Met or c-Met IC (Genbank accession number NP000236-1 amino acid […]) is cloned into the BamHI/XhoI sites of the pBlueBacHis2A vector (Invitrogen) for the production of a histidine-tagged version of that enzyme. This construct is used to generate recombinant baculovirus using the Bac-N-Blue™ system according to the manufacturer's instructions (Invitrogen).
The c-Met IC protein is expressed in Hi-5 cells (Trichoplusia Ni) upon infection with recombinant baculovirus construct. Briefly, Hi-5 cells grown in suspension and maintained in serum-free medium (Sf900 II supplemented with gentamycin) at a cell density of about 2×10^6 cells/ml are infected with the above-mentioned viruses at a multiplicity of infection (MOI) of 0.2 during 72 hours at 27° C. with agitation at 120 rpm on a rotary shaker. Infected cells are harvested by centrifugation at 398 g for 15 min. Cell pellets are frozen at −80° C. until purification is performed.
All steps described in cell extraction and purification are performed at 4° C. Frozen Hi-5 cell pellets infected with the C-Met IC recombinant baculovirus are thawed and gently resuspended in Buffer A (20 mM Tris pH 8.0, 10% glycerol, 1 μg/ml pepstatin, 2 μg/ml Aprotinin and leupeptin, 50 μg/ml PMSF, 50 μg/ml TLCK and 10 μM E64, 0.5 mM DTT and 1 mM Levamisole) using 3 ml of buffer per gram of cells. The suspension is Dounce homogenized after which it is centrifuged at 22500 g, 30 min., 4° C. The supernatant (cell extract) is used as starting material for purification of c-Met IC.
The supernatant is loaded onto a QsepharoseFF column (Amersham Biosciences) equilibrated with Buffer B (20 mM Tris pH 8.0, 10% glycerol) supplemented with 0.05M NaCl. Following a ten column volume (CV) wash with equilibration buffer, bound proteins are eluted with a 5 CV salt linear gradient spanning from 0.05 to 1M NaCl in Buffer B. Typically, the conductivity of selected fractions rank between 6.5 and 37 mS/cm. This Qsepharose eluate has an estimated NaCl concentration of 0.33M and is supplemented with a 5M NaCl solution in order to increase NaCl concentration at 0.5M and also with a 5M Imidazole (pH 8.0) solution to achieve a final imidazole concentration of 15 mM. This material is loaded onto a HisTrap affinity column (GE Healthcare) equilibrated with Buffer C (50 mM NaPO4 pH 8.0, 0.5M NaCl, 10% glycerol) supplemented with 15 mM imidazole. After a 10 CV wash with equilibration buffer and an 8 CV wash with buffer C+40 mM imidazole, bound proteins are eluted with an 8 CV linear gradient (15 to 500 mM) of imidazole in buffer C. C-Met IC enriched fractions from this chromatography step are pooled based on SDS-PAGE analysis. This pool of enzyme undergoes buffer exchange using PD-10 column (GE Healthcare) against buffer D (25 mM HEPES pH 7.5, 0.1M NaCl, 10% glycerol and 2 mM β-mercaptoethanol). Final C-Met IC protein preparations concentrations are about 0.5 mg/ml with purity approximating 80%. Purified c-Met IC protein stocks are supplemented with BSA at 1 mg/ml, aliquoted and frozen at −80° C. prior to use in enzymatic assay.
Inhibition of c-Met/HGF receptor and VEGFR/KDR is measured in a DELFIA™ assay (Perkin Elmer). The substrate poly(Glu4,Tyr) is immobilized onto black high-binding polystyrene 96-well plates. The coated plates are washed and stored at 4° C. During the assay, enzymes are pre-incubated with inhibitor and Mg-ATP on ice in polypropylene 96-well plates for 4 minutes, and then transferred to the coated plates. The subsequent kinase reaction takes place at 30° C. for 10-30 minutes. ATP concentrations in the assay are 10 uM for C-Met (5× the Km) and 0.6 uM for VEGFR/KDR (2× the Km). Enzyme concentration is 25 nM (C-Met) or 5 nM (VEGFR/KDR). […]

The target of another assay is T2, VEGF receptor KDR (Homo sapiens, UniProt P35968).
T2 construct: made in house; host or cells: Sf9 cells (Spodoptera frugiperda), recombinant baculovirus
Briefly: In vitro receptor tyrosine kinase assay, VEGF receptor KDR (DELFIA). To be noted: ATP 0.6 uM, enzyme 5 nM; read-out: Potency in enzyme assays VEGF. Format: biochemical.
Description: as §1
In the case of VEGF receptor KDR a 1.6-kb cDNA corresponding to the catalytic domain of VEGFR2 or KDR (Genbank accession number AF035121 amino acid 806 to 1356) is cloned into the Pst I site of the pDEST20 Gateway vector (Invitrogen) for the production of a GST-tagged version of that enzyme. This construct is used to generate recombinant baculovirus using the Bac-to-Bac system according to the manufacturer's instructions (Invitrogen).
The GST-VEGFR2806-1356 protein is expressed in Sf9 cells (Spodoptera frugiperda) upon infection with recombinant baculovirus construct. Briefly, Sf9 cells grown in suspension and maintained in serum-free medium (Sf900 II supplemented with gentamycin) at a cell density of about 2×10^6 cells/ml are infected with the above-mentioned viruses at a multiplicity of infection (MOI) of 0.1 during 72 hours at 27° C. with agitation at 120 rpm on a rotary shaker. Infected cells are harvested by centrifugation at 398 g for 15 min. Cell pellets are frozen at −80° C. until purification is performed.
All steps described in cell extraction and purification are performed at 4° C. Frozen Sf9 cell pellets infected with the GST-VEGFR2806-1356 recombinant baculovirus re thawed and gently resuspended in Buffer A (PBS pH 7.3 supplemented with 1 μg/ml pepstatin, 2 μg/ml Aprotinin and leupeptin, 50 μg/ml PMSF, 50 μg/ml TLCK and 10 μM E64 and 0.5 mM DTT) using 3 ml of buffer per gram of cells. Suspension is Dounce homogenized and 1% Triton X-100 is added to the homogenate after which it is centrifuged at 22500 g, 30 min., 4° C. The supernatant (cell extract) is used as starting material for purification of GST-VEGFR2806-1356.
The supernatant is loaded onto a GST-agarose column (Sigma) equilibrated with PBS pH 7.3. Following a four column volume (CV) wash with PBS pH 7.3+1% Triton X-100 and 4 CV wash with buffer B (50 mM Tris pH 8.0, 20% glycerol and 100 mM NaCl), bound proteins are step eluted with 5 CV of buffer B supplemented with 5 mM DTT and 15 mM glutathion. GST-VEGFR2806-1356 enriched fractions from this chromatography step are pooled based on U.V. trace i.e. fractions with high O.D^-280- Final GST-VEGFR2806-1356 protein preparations concentrations are about 0.7 mg/ml with purity approximating 70%. Purified GST-VEGFR2806-1356 protein stocks are aliquoted and frozen at −80° C. prior to use in enzymatic assay.
Inhibition of c-Met/HGF receptor and VEGFR/KDR is measured in a DELFIA™ assay (Perkin Elmer). The substrate poly(Glu4,Tyr) is immobilized onto black high-binding polystyrene 96-well plates. The coated plates are washed and stored at 4° C. During the assay, enzymes are pre-incubated with inhibitor and Mg-ATP on ice in polypropylene 96-well plates for 4 minutes, and then transferred to the coated plates. The subsequent kinase reaction takes place at 30° C. for 10-30 minutes. ATP concentrations in the assay are 10 uM for C-Met (5× the Km) and 0.6 uM for VEGFR/KDR (2× the Km). Enzyme concentration is 25 nM (C-Met) or 5 nM (VEGFR/KDR). After incubation, the kinase reactions are quenched with EDTA and the plates are washed. Phosphorylated product is detected by incubation with Europium-labeled anti-phosphotyrosine MoAb. After washing the plates, bound MoAb is detected by time-resolved fluorescence in a Gemini SpectraMax reader (Molecular Devices). Compounds are evaluated over a range of concentrations and IC50's (concentration of compounds giving 50% inhibition of enzymatic activity) are determined.

A further assay relates to A549. Briefly: A549 wound healing inhibition. The conditions noted are these: Homo sapiens; A549 cells; read-out: Potency in cell-based assays A549 wound healing inhibition.
The subject of the next assay is DU145. Briefly: DU145 scattering inhibition. To be noted: Homo sapiens, DU-145; DU145 cells; read-out: Potency in cell-based assays DU145 scattering inhibition.

T1 sequence (P08581 1078-1337): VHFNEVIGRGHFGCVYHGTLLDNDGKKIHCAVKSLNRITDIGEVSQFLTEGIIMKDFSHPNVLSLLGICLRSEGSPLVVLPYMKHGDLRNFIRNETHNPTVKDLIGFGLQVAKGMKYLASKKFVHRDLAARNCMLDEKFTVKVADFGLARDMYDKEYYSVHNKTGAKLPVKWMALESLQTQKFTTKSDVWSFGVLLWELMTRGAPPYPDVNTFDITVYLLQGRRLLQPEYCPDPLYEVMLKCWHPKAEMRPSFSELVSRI
T2 sequence (P35968 806-1356): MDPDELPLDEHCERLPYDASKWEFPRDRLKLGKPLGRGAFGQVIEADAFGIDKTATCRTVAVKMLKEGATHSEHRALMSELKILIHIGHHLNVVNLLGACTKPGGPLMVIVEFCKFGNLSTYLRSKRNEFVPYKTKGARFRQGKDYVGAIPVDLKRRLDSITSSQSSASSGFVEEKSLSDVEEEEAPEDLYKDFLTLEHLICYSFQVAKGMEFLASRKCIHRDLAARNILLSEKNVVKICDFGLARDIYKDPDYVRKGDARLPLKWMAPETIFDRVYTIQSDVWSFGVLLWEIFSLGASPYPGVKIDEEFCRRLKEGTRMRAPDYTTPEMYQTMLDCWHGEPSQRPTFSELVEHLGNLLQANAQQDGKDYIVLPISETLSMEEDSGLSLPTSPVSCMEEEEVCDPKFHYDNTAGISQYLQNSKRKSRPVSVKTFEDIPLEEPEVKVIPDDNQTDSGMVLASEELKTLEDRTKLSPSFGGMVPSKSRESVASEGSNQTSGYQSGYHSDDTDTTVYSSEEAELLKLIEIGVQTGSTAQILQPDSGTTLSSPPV

Take `CNC(=O)c1cc(Oc2ccc(NC(=O)N3CCN(c4ccc(F)cc4)C3=O)cc2F)ccn1` [Compound 87b, 4-(2-fluoro-4-(3-(4-fluorophenyl)-2-oxoimidazolidine-1-carboxamido)phenoxy)-N-methylpicolinamide]: the IC50 in assay [1] was 500 to 1000 nM; on VEGF receptor KDR, no less than 1000 nM; with A549, 1000 to 5000 nM; in the assay with DU145, 1000 to 5000 nM.

Turning to `O=C(Nc1cc(Oc2ccc(NC(=O)N3CCN(c4ccccc4)C3=O)cc2F)ccn1)N1CCCC1` [Compound 18a, N-(3-Fluoro-4-(2-(pyrrolidine-1-carboxamido)pyridin-4-yloxy)phenyl)-2-oxo-3-phenylimidazolidine-1-carboxamide], the IC50 in assay [1] was less than 250 nM; on VEGF receptor KDR, 250 to 500 nM; in the assay on A549, no less than 1000 nM; in the assay with DU145, no less than 1000 nM.

Consider `O=C(Nc1ccc(Oc2ccncc2)c(F)c1)N1CCN(c2ccc(Cl)cc2)C1=O` [Compound 21f, 3-(4-chlorophenyl)-N-(3-fluoro-4-(pyridin-4-yloxy)phenyl)-2-oxoimidazolidine-1-carboxamide], for which the IC50 was 250 to 500 nM in assay [1], no less than 1000 nM on VEGF receptor KDR, 1000 to 5000 nM in the assay on A549 and 5000 to 10000 nM in the assay on DU145.

Regarding `CN(C)CCCOC(=O)Nc1cc(Oc2ccc(NC(=O)N3CCN(c4ccccc4)C3=O)cc2F)ccn1` [Compound 18i, 3-(dimethylamino)propyl4-(2-fluoro-4-(2-oxo-3-phenylimidazolidine-1-carboxamido)phenoxy),pyridin-2-ylcarbamate], the IC50 is less than 250 nM in assay [1], no less than 1000 nM on VEGF receptor KDR, 1000 to 5000 nM with A549 and 1000 to 5000 nM with DU145.

On to `CN(C)[C@@H]1CCN(C(=O)Nc2cc(Oc3ccc(NC(=O)N4CCN(c5ccccc5)C4=O)cc3F)ccn2)C1` [Compound 18e, (R)-N-(4-(2-(3-(dimethylamino)pyrrolidine-1-carboxamido)pyridin-4-yloxy)-3-fluorophenyl)-2-oxo-3-phenylimidazolidine-1-carboxamide], for which the IC50 in assay [1] is less than 250 nM; on VEGF receptor KDR, 250 to 500 nM; with A549, no less than 1000 nM; in the assay with DU145, no less than 1000 nM.

For `CN(C)[C@H]1CCN(C(=O)Nc2cc(Oc3ccc(NC(=O)N4CCN(c5ccccc5)C4=O)cc3F)ccn2)C1` [Compound 18f, (S)-N-(4-(2-(3-(dimethylamino)pyrrolidine-1-carboxamido)pyridin-4-yloxy)-3-fluorophenyl)-2-oxo-3-phenylimidazolidine-1-carboxamide], the IC50 in assay [1] is less than 250 nM; at VEGF receptor KDR, less than 250 nM; with A549, 1000 to 5000 nM; in the assay on DU145, no less than 1000 nM.

As to `CN(C)[C@H]1CCN(C(=O)Nc2cc(Oc3ccc(NC(=O)N4CCN(c5ccc(F)cc5)C4=O)cc3F)ccn2)C1` [Compound 18h, (S)-N-(4-(2-(3-(dimethylamino)pyrrolidine-1-carboxamido)pyridin-4-yloxy)-3-fluorophenyl)-3-(4-fluorophenyl)-2-oxoimidazolidine-1-carboxamide], the IC50 in assay [1] was less than 250 nM; on VEGF receptor KDR it was less than 250 nM; in the assay with A549 it was no less than 1000 nM; in the assay with DU145, no less than 1000 nM.

Take `COc1ccc(Nc2nccc(Oc3ccc(NC(=O)N4CCN(c5ccccc5)C4=O)cc3F)n2)cc1` [Compound 61b, N-(3-fluoro-4-(2-(4-methoxyphenylamino)pyrimidin-4-yloxy)phenyl)-2-oxo-3-phenylimidazolidine-1-carboxamide]: the IC50 in assay [1] was 500 to 1000 nM; on VEGF receptor KDR, no less than 1000 nM; in the assay with A549, 5000 to 10000 nM; in the assay with DU145 it was 5000 to 10000 nM.

For the molecule `CN(C)CCOC(=O)Nc1cc(Oc2ccc(NC(=O)N3CCN(c4ccccc4)C3=O)cc2F)ccn1` [Compound 18d, 2-(dimethylamino)ethyl4-(2-fluoro-4-(2-oxo-3-phenylimidazolidine-1-carboxamido)phenoxy)pyridin-2-ylcarbamate], the IC50 in assay [1] is 250 to 500 nM; on VEGF receptor KDR it was no less than 1000 nM; in the assay with A549 it was greater than 10000 nM; in the assay on DU145, greater than 10000 nM.
